Experimental data taken from PubChem BioAssay (NCI).
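These data come from cells grown in 96-well plates and exposed to compound for 48 hours at five concentrations. Definition used: TGI = concentration required for complete inhibition of growth.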

Tests used:
Experiment in all cases: inhibition of tumour cell growth, NCI panel, 48 h
IGROV1 ovarian = system: IGROV1 ovarian
M19-MEL melanoma = system: M19-MEL melanoma
SF-295 CNS = system: SF-295 CNS
SNB-19 CNS = system: SNB-19 CNS
ACHN renal = system: ACHN renal
HCC-2998 colon = system: HCC-2998 colon
SK-MEL-2 melanoma = system: SK-MEL-2 melanoma
HCT-15 colon = system: HCT-15 colon
HOP-92 NSCLC = system: HOP-92 NSCLC
OVCAR-4 ovarian = system: OVCAR-4 ovarian
OVCAR-8 ovarian = system: OVCAR-8 ovarian
SF-539 CNS = system: SF-539 CNS
SNB-75 CNS = system: SNB-75 CNS
SN12C renal = system: SN12C renal
SW-620 colon = system: SW-620 colon
RXF-631 renal = system: RXF-631 renal
SK-MEL-28 melanoma = system: SK-MEL-28 melanoma
UO-31 renal = system: UO-31 renal
OVCAR-3 ovarian = system: OVCAR-3 ovarian
LXFL 529 NSCLC = system: LXFL 529 NSCLC
KM20L2 colon = system: KM20L2 colon
SR leukemia = system: SR leukemia
DLD-1 colon = system: DLD-1 colon
TK-10 renal = system: TK-10 renal
SK-OV-3 ovarian = system: SK-OV-3 ovarian
COLO 205 colon = system: COLO 205 colon
RXF 393 renal = system: RXF 393 renal
M14 melanoma = system: M14 melanoma
NCI-H522 lung = system: NCI-H522 lung
NCI-H23 lung = system: NCI-H23 lung
LOX IMVI melanoma = system: LOX IMVI melanoma
SF-268 CNS = system: SF-268 CNS
RPMI-8226 leukemia = system: RPMI-8226 leukemia
K-562 leukemia = system: K-562 leukemia
EKVX NSCLC = system: EKVX NSCLC
NCI-H226 lung = system: NCI-H226 lung
NCI-H460 lung = system: NCI-H460 lung
U251 CNS = system: U251 CNS
CCRF-CEM leukemia = system: CCRF-CEM leukemia
HOP-62 NSCLC = system: HOP-62 NSCLC
UACC-257 melanoma = system: UACC-257 melanoma
786-0 renal = system: 786-0 renal
MOLT-4 leukemia = system: MOLT-4 leukemia
MALME-3M melanoma = system: MALME-3M melanoma
CAKI-1 renal = system: CAKI-1 renal
KM12 colon = system: KM12 colon
HCT-116 colon = system: HCT-116 colon
A549 NSCLC = system: A549 NSCLC
HT29 colon = system: HT29 colon
DMS 273 small cell lung = system: DMS 273 small cell lung
OVCAR-5 ovarian = system: OVCAR-5 ovarian
HL-60(TB) leukemia = system: HL-60(TB) leukemia
UACC-62 melanoma = system: UACC-62 melanoma
SK-MEL-5 melanoma = system: SK-MEL-5 melanoma
DMS 114 small cell lung = system: DMS 114 small cell lung
XF 498 CNS = system: XF 498 CNS
HOP-18 NSCLC = system: HOP-18 NSCLC

Measured: TGI

O=C(CO[N+](=O)[O-])OCC(=O)c1ccccc1
not listed: UACC-62 melanoma | SK-MEL-5 melanoma | DMS 114 small cell lung | XF 498 CNS | HOP-18 NSCLC
> 100 µM: all other assays above

NS(=O)(=O)c1cc2c(cc1Cl)NC(C(=O)NNC(=O)c1ccncc1)=NS2(=O)=O
not listed: RXF-631 renal | RPMI-8226 leukemia | K-562 leukemia | U251 CNS | OVCAR-5 ovarian
> 100 µM: all other assays above
